Source: PubChem BioAssay (NCI)
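Assay format: 96-well plates, 48-hour exposure. Definition used: TGI = concentration required for complete inhibition of growth.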

Tests used:
Test in all cases: DTP human tumour cell line panel, 48 h
OVCAR-4 ovarian = test system: OVCAR-4 ovarian
NCI-H460 lung = test system: NCI-H460 lung
HOP-62 NSCLC = test system: HOP-62 NSCLC
OVCAR-3 ovarian = test system: OVCAR-3 ovarian
SK-MEL-28 melanoma = test system: SK-MEL-28 melanoma
UO-31 renal = test system: UO-31 renal
TK-10 renal = test system: TK-10 renal
SNB-19 CNS = test system: SNB-19 CNS
CAKI-1 renal = test system: CAKI-1 renal
DU-145 prostate = test system: DU-145 prostate
COLO 205 colon = test system: COLO 205 colon
SW-620 colon = test system: SW-620 colon
SF-268 CNS = test system: SF-268 CNS
786-0 renal = test system: 786-0 renal
SR leukemia = test system: SR leukemia
NCI-H226 lung = test system: NCI-H226 lung
HCC-2998 colon = test system: HCC-2998 colon
OVCAR-5 ovarian = test system: OVCAR-5 ovarian
RPMI-8226 leukemia = test system: RPMI-8226 leukemia

Measured: TGI

c1ccc2c(c1)Nc1ccccc1[P+]21c2ccccc2Nc2ccccc21
11.2 µM: CAKI-1 renal
0.66 µM: NCI-H226 lung
2.44 µM: HCC-2998 colon
2.04 µM: OVCAR-5 ovarian
2.87 µM: 786-0 renal
23.3 µM: UO-31 renal
0.612 µM: OVCAR-3 ovarian
0.202 µM: COLO 205 colon
3.46 µM: DU-145 prostate
1.4 µM: SR leukemia
3.42 µM: SW-620 colon
1.09 µM: SNB-19 CNS
1.58 µM: HOP-62 NSCLC
6.63 µM: SF-268 CNS
2.81 µM: NCI-H460 lung
1.65 µM: SK-MEL-28 melanoma
> 32.5 µM: OVCAR-4 ovarian
5.93 µM: TK-10 renal

CCOCN1COCN=C1NC#N
69.7 µM: COLO 205 colon
35.3 µM: SW-620 colon
76.5 µM: SR leukemia
not listed: DU-145 prostate | RPMI-8226 leukemia
> 100 µM: all other assays above

Nc1nc(NCCO)c(N=O)c(=O)[nH]1
not listed: SNB-19 CNS | DU-145 prostate | SR leukemia | HCC-2998 colon
> 100 µM: all other assays above

Cc1ccccc1C1OC(=O)c2ccccc21 (configuration not stated)
not listed: OVCAR-4 ovarian | CAKI-1 renal | DU-145 prostate | RPMI-8226 leukemia
> 100 µM: all other assays above

CCOc1ccc(NC(=O)C(=O)NO)cc1
not listed: DU-145 prostate
> 100 µM: all other assays above

CC1=NOC2(C1)C(=O)Nc1ccccc12 (configuration not stated)
not listed: UO-31 renal
> 100 µM: all other assays above

CCCCCCCc1cc(OC(=O)c2c(C)cc(OC)cc2O)cc(O)c1C(=O)O
35.2 µM: HOP-62 NSCLC
90.2 µM: TK-10 renal
58.3 µM: SNB-19 CNS
35.6 µM: HCC-2998 colon
78.2 µM: OVCAR-4 ovarian
36 µM: NCI-H460 lung
37.3 µM: COLO 205 colon
45.9 µM: SF-268 CNS
32.1 µM: OVCAR-5 ovarian
28.7 µM: OVCAR-3 ovarian
74 µM: RPMI-8226 leukemia
36.8 µM: 786-0 renal
30.6 µM: UO-31 renal
43.4 µM: CAKI-1 renal
38.7 µM: SK-MEL-28 melanoma
64.5 µM: SW-620 colon

COC(=O)C1CCC(Nc2ccc(C)cc2C)=N1 (configuration not stated)
not listed: DU-145 prostate | SR leukemia
> 100 µM: all other assays above

CN(C)c1nc2oc(-c3ccccc3)c(-c3ccccc3)c2c2nncn12
not listed: NCI-H460 lung | HOP-62 NSCLC | OVCAR-3 ovarian
> 100 µM: all other assays above

NC(=O)c1cccc(C2OC(COP(=O)(O)O)C(O)C2O)c1 (configuration not stated)
not listed: OVCAR-4 ovarian | DU-145 prostate | SR leukemia
> 50 µM: all other assays above

n1onc2c1NC1Nc3nonc3NC1N2 (configuration not stated)
not listed: SR leukemia
> 100 µM: all other assays above

COP(=O)(Cc1ccc(/C=C/C#N)o1)OC
not listed: UO-31 renal | CAKI-1 renal | SW-620 colon | HCC-2998 colon | OVCAR-5 ovarian
> 100 µM: all other assays above

Cc1ccc(S(=O)(=O)n2c3c(c4ccccc42)CCN2C(=O)C(S(=O)(=O)c4ccccc4)=CCC32)cc1 (configuration not stated)
0.581 µM: OVCAR-5 ovarian
0.44 µM: HCC-2998 colon
0.282 µM: TK-10 renal
0.353 µM: SK-MEL-28 melanoma
0.375 µM: DU-145 prostate
1.51 µM: NCI-H460 lung
0.332 µM: OVCAR-3 ovarian
0.346 µM: 786-0 renal
0.436 µM: OVCAR-4 ovarian
0.749 µM: RPMI-8226 leukemia
0.458 µM: COLO 205 colon
1.91 µM: SNB-19 CNS
0.562 µM: HOP-62 NSCLC
0.635 µM: SR leukemia
0.715 µM: SW-620 colon
0.384 µM: UO-31 renal
0.872 µM: CAKI-1 renal

Cc1cc2c(cc1Cl)SC(c1ccccc1)C(=O)NS2(=O)=O (configuration not stated)
53.4 µM: OVCAR-3 ovarian
70.8 µM: HCC-2998 colon
73.8 µM: SR leukemia
86.1 µM: NCI-H460 lung
75.1 µM: UO-31 renal
not listed: SNB-19 CNS | COLO 205 colon
> 100 µM: all other assays above
